Data on 11 compounds can be found in ChEMBL document CHEMBL3137667, “[Drug-induced liver injury; fourteenth updated edition of the bibliographic database of liver injuries and related drugs]” (Gastroenterol Clin Biol, 2004).

The conditions of data set [1]: human.
For data set [2] the following is noted: human. This is another data set of the same source.
The conditions of data set [3]: human, serum, 4383 h.
Data set [4] can be described thus: Highest frequency of acute liver toxicity observed during clinical trials, expressed as a percentage. [column '% AIGUE' in source]. Particulars: human.
For data set [5] the following is noted: human, serum.
For data set [6] the following is noted: human. This is another data set of the same source.
The conditions of data set [7]: human. The source holds these as a separate data set.
The nature of data set [8]: Highest frequency of moderate liver toxicity observed during clinical trials, expressed as a percentage. [column '% BIOL' in source]. Particulars: human.
The conditions of data set [9]: human. This is another data set of the same source.
For data set [10] the following is noted: human, serum. The source holds these as a separate data set.
For data set [11] the following is noted: human. This is another data set of the same source.
For data set [12] the following is noted: human. This is another data set of the same source.
A short description of data set [13]: Proposed mechanism(s) of liver damage. [column 'MEC' in source]. Particulars: human.
The conditions of data set [14]: human. The source holds these as a separate data set.
The conditions of data set [15]: human. This is another data set of the same source.
Data set [16] in a line: Times to onset, minimal and maximal, observed in the indexed observations. [column 'DELAI' in source]. Particulars: human.
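Throughout, for Hepatotoxicity (association with vascular disease): count of indexed literature references reporting vascular liver injury in humans, e.g. peliosis hepatitis, hepatic veno-occlusive disease or Budd-Chiari syndrome.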
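Throughout, for Hepatotoxicity (benign tumour): value is a count of indexed literature references citing a benign tumour confirmed by histopathology.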
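Throughout, for Hepatotoxicity (choleostasis): human cholestatic liver injury, shown by histopathology or by peak ALT or AST elevation over alkaline phosphatase ratio below 2, value counts indexed literature reports.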
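Throughout, for Hepatotoxicity (chronic liver disease): chronic liver injury confirmed by histopathology or persistently raised serum aminotransferase activity beyond 6 months, value given as the count of indexed literature references.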
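Throughout, for Hepatotoxicity (cirrhosis): value is a count of indexed literature references reporting cirrhosis confirmed by histopathology.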
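Throughout, for Hepatotoxicity (cytolytic): human cytolytic liver injury, shown by histopathology or by a ratio above 5 of peak ALT or AST elevation to alkaline phosphatase elevation, value counts indexed references.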
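Throughout, for Hepatotoxicity (granulomatous hepatitis): value is a count of indexed literature references reporting granulomatous liver disease confirmed by histopathology.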
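Throughout, for Hepatotoxicity (malignant tumour): malignant tumour confirmed by histopathology, value gives the count of indexed literature references reporting it.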
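Throughout, for Hepatotoxicity (severe hepatitis): human clinical data: severe hepatitis, meaning potentially life-threatening liver failure or clinically observed cases, the value counts how many indexed literature references report it.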
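Throughout, for Hepatotoxicity (steatosis): steatosis confirmed by histopathology, value is the count of indexed references.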

On to `COc1ccccc1Oc1c(NS(=O)(=O)c2ccc(C(C)(C)C)cc2)nc(-c2ncccn2)nc1OCCO` [BOSENTAN], for which the “Hepatotoxicity (choleostasis)” value in [1] was 1. Moreover, the “Hepatotoxicity (cirrhosis)” value in data set [2] is reported as 0. The “Hepatotoxicity (chronic liver disease)” value in data set [3] was found to be 0. Further, the “Hepatotoxicity (acute)” value in [4] was 5.3%; in data set [5] it was 5. The “Hepatotoxicity (steatosis)” value in data set [6] is 0. The “Hepatotoxicity (cytolytic)” value in data set [7] is listed as 4. Further, the “Hepatotoxicity (moderate)” value in [8] came out at 15%; in [10], 12. Also, the “Hepatotoxicity (association with vascular disease)” value in data set [9] was found to be 0. For the same compound, the “Hepatotoxicity (severe hepatitis)” value in [11] came out at 0. In addition, the “Hepatotoxicity (malignant tumour)” value in data set [12] turned out to be 0. In addition, in data set [13], the “Hepatotoxicity (mechanism)” value was “Dose-dependant”. Further, the “Hepatotoxicity (granulomatous hepatitis)” value in data set [14] is recorded as 0. Besides, the “Hepatotoxicity (benign tumour)” value in data set [15] was found to be 0.
As to `CCCCC1C(=O)NN(c2ccccc2)C1=O` (stereo not given) [MOFEBUTAZONE], the “Hepatotoxicity (choleostasis)” value in data set [1] is recorded as 0. Moreover, in data set [2], the “Hepatotoxicity (cirrhosis)” value was 1. For the same compound, in [3], the “Hepatotoxicity (chronic liver disease)” value was found to be 0. Moreover, the “Hepatotoxicity (acute)” value in data set [4] is recorded as 0%; in [5], 1. In addition, in [6], the “Hepatotoxicity (steatosis)” value was 0. Moreover, the “Hepatotoxicity (cytolytic)” value in [7] is 1. Also, the “Hepatotoxicity (moderate)” value was 0% in data set [8] and 0 in data set [10]. Moreover, the “Hepatotoxicity (time to onset)” value in [16] turned out to be 2 years. Further, in data set [9], the “Hepatotoxicity (association with vascular disease)” value was 0. For the same compound, the “Hepatotoxicity (severe hepatitis)” value in [11] is listed as 0. For the same compound, the “Hepatotoxicity (malignant tumour)” value in data set [12] was 0. Also, the “Hepatotoxicity (granulomatous hepatitis)” value in data set [14] turned out to be 0. Also, the “Hepatotoxicity (benign tumour)” value in data set [15] is on record as 0.
As for `CC[C@H]1OC(=O)[C@H](C)[C@@H](O[C@H]2C[C@@](C)(OC)[C@@H](O)[C@H](C)O2)[C@H](C)[C@@H](O[C@@H]2O[C@H](C)C[C@H](N(C)C)[C@H]2O)[C@](C)(O)C[C@@H](C)/C(=N\OCOCCOC)[C@H](C)[C@@H](O)[C@]1(C)O` [ROXITHROMYCIN], the “Hepatotoxicity (choleostasis)” value in data set [1] is given as 6. The “Hepatotoxicity (cirrhosis)” value in [2] is recorded as 0. The “Hepatotoxicity (chronic liver disease)” value in [3] is given as 0. Besides, the “Hepatotoxicity (acute)” value amounted to 0% in data set [4] and 10 in data set [5]. For the same compound, the “Hepatotoxicity (steatosis)” value in data set [6] amounted to 0. In data set [7], the “Hepatotoxicity (cytolytic)” value was 7. Further, the “Hepatotoxicity (moderate)” value in data set [8] came out at 22.6%; in data set [10], 38. The “Hepatotoxicity (time to onset)” value in [16] was 4 days - 10 months. Further, in data set [9], the “Hepatotoxicity (association with vascular disease)” value was found to be 0. In addition, the “Hepatotoxicity (severe hepatitis)” value in [11] was 2. The “Hepatotoxicity (malignant tumour)” value in data set [12] was 0. In addition, the “Hepatotoxicity (granulomatous hepatitis)” value in data set [14] came out at 0. In data set [15], the “Hepatotoxicity (benign tumour)” value was 0.
Consider `CNC1Cc2ccccc2N(C)c2ccccc21` (stereo not given) [METAPRAMINE], for which the “Hepatotoxicity (choleostasis)” value in [1] was 1. Further, in data set [2], the “Hepatotoxicity (cirrhosis)” value worked out at 0. Further, the “Hepatotoxicity (chronic liver disease)” value in [3] is recorded as 0. In addition, the “Hepatotoxicity (acute)” value was determined as 0% in [4] and 1 in data set [5]. The “Hepatotoxicity (steatosis)” value in data set [6] turned out to be 1. Further, the “Hepatotoxicity (cytolytic)” value in data set [7] came to 1. Besides, the “Hepatotoxicity (moderate)” value was 0% in data set [8] and 0 in data set [10]. Besides, the “Hepatotoxicity (time to onset)” value in data set [16] was found to be 3 weeks - 3 months. Besides, in data set [9], the “Hepatotoxicity (association with vascular disease)” value amounted to 0. For the same compound, the “Hepatotoxicity (severe hepatitis)” value in data set [11] was determined as 0. In data set [12], the “Hepatotoxicity (malignant tumour)” value is given as 0. Besides, the “Hepatotoxicity (granulomatous hepatitis)” value in data set [14] is listed as 0. For the same compound, the “Hepatotoxicity (benign tumour)” value in [15] was 0.
For `CCc1oc2ccccc2c1C(=O)c1cc(I)c(O)c(I)c1` [BENZIODARONE], in [1], the “Hepatotoxicity (choleostasis)” value was 3. The “Hepatotoxicity (cirrhosis)” value in data set [2] is recorded as 0. Moreover, the “Hepatotoxicity (chronic liver disease)” value in [3] was found to be 0. For the same compound, the entries for the “Hepatotoxicity (acute)” value in [4] and in [5] were 0% and 3, respectively. For the same compound, the “Hepatotoxicity (steatosis)” value in data set [6] is 0. The “Hepatotoxicity (cytolytic)” value in data set [7] was found to be 0. Moreover, the “Hepatotoxicity (moderate)” value in data set [8] is 0%; in data set [10], 0. Also, the “Hepatotoxicity (time to onset)” value in data set [16] is 1 month - 4 months. Also, the “Hepatotoxicity (association with vascular disease)” value in data set [9] amounted to 0. The “Hepatotoxicity (severe hepatitis)” value in data set [11] was 0. In addition, the “Hepatotoxicity (malignant tumour)” value in data set [12] worked out at 0. Also, the “Hepatotoxicity (granulomatous hepatitis)” value in data set [14] worked out at 0. Besides, the “Hepatotoxicity (benign tumour)” value in data set [15] came out at 0.
Regarding COLESTIPOL, the “Hepatotoxicity (choleostasis)” value in data set [1] was 0. The “Hepatotoxicity (cirrhosis)” value in [2] was 0. For the same compound, the “Hepatotoxicity (chronic liver disease)” value in data set [3] is 0. Besides, the results for the “Hepatotoxicity (acute)” value in data set [4] and in data set [5] were 0% and 1, respectively. Also, the “Hepatotoxicity (steatosis)” value in [6] amounted to 0. Besides, in data set [7], the “Hepatotoxicity (cytolytic)” value was 1. Further, the “Hepatotoxicity (moderate)” value in data set [8] was 0.8%; in data set [10] it was 1. Moreover, the “Hepatotoxicity (time to onset)” value in data set [16] is recorded as 6 months. Further, the “Hepatotoxicity (association with vascular disease)” value in data set [9] is reported as 0. For the same compound, the “Hepatotoxicity (severe hepatitis)” value in [11] is 0. Also, the “Hepatotoxicity (malignant tumour)” value in data set [12] is 0. The “Hepatotoxicity (granulomatous hepatitis)” value in data set [14] is on record as 0. Moreover, in data set [15], the “Hepatotoxicity (benign tumour)” value came to 0.
Consider `Cc1ccccc1N1C(=O)c2cc(S(N)(=O)=O)c(Cl)cc2NC1C` (stereo not given) [METOLAZONE], for which the “Hepatotoxicity (choleostasis)” value in data set [1] was 1. Besides, the “Hepatotoxicity (cirrhosis)” value in [2] is reported as 0. Further, the “Hepatotoxicity (chronic liver disease)” value in data set [3] amounted to 0. The “Hepatotoxicity (acute)” value was 0% in data set [4] and 2 in [5]. Moreover, in data set [6], the “Hepatotoxicity (steatosis)” value is reported as 0. For the same compound, in [7], the “Hepatotoxicity (cytolytic)” value turned out to be 0. Moreover, the “Hepatotoxicity (moderate)” value is on record as 0% in data set [8] and 0 in [10]. The “Hepatotoxicity (time to onset)” value in data set [16] worked out at 8 days - 3 months. The “Hepatotoxicity (association with vascular disease)” value in data set [9] was 0. The “Hepatotoxicity (severe hepatitis)” value in data set [11] is given as 1. The “Hepatotoxicity (malignant tumour)” value in data set [12] is 0. In data set [14], the “Hepatotoxicity (granulomatous hepatitis)” value is given as 1. Besides, the “Hepatotoxicity (benign tumour)” value in data set [15] was 0.
On to `CN1c2c(oc(=O)n(-c3ccccn3)c2=O)-c2ccccc2S1(=O)=O` [DROXICAM], for which the “Hepatotoxicity (choleostasis)” value in [1] is 6. The “Hepatotoxicity (cirrhosis)” value in [2] was 0. Moreover, in [3], the “Hepatotoxicity (chronic liver disease)” value is listed as 0. The “Hepatotoxicity (acute)” value in data set [4] was above 0%; in data set [5], 7. Moreover, in data set [6], the “Hepatotoxicity (steatosis)” value was 0. In addition, in data set [7], the “Hepatotoxicity (cytolytic)” value is 4. Moreover, the “Hepatotoxicity (moderate)” value is listed as 0% in [8] and 0 in data set [10]. Further, the “Hepatotoxicity (time to onset)” value in data set [16] was 10 days - 7 weeks. In [9], the “Hepatotoxicity (association with vascular disease)” value amounted to 0. In addition, the “Hepatotoxicity (severe hepatitis)” value in data set [11] came to 0. Moreover, in data set [12], the “Hepatotoxicity (malignant tumour)” value is reported as 0. In data set [14], the “Hepatotoxicity (granulomatous hepatitis)” value is 1. In data set [15], the “Hepatotoxicity (benign tumour)” value came to 0.
As for `CC(C)=CCN1CC[C@]2(C)c3cc(O)ccc3C[C@H]1[C@H]2C` [(+)-PENTAZOCINE], the “Hepatotoxicity (choleostasis)” value in data set [1] came to 0. For the same compound, in [2], the “Hepatotoxicity (cirrhosis)” value worked out at 0. Besides, the “Hepatotoxicity (chronic liver disease)” value in data set [3] came to 0. Also, the “Hepatotoxicity (acute)” value in data set [4] is 0%; in [5] it was 2. Besides, the “Hepatotoxicity (steatosis)” value in data set [6] is given as 0. In [7], the “Hepatotoxicity (cytolytic)” value came to 0. For the same compound, the entries for the “Hepatotoxicity (moderate)” value in data set [8] and in [10] were 0% and 0, respectively. For the same compound, the “Hepatotoxicity (time to onset)” value in data set [16] is given as below 3 months. Moreover, the “Hepatotoxicity (association with vascular disease)” value in [9] worked out at 0. In addition, in [11], the “Hepatotoxicity (severe hepatitis)” value came out at 0. For the same compound, the “Hepatotoxicity (malignant tumour)” value in data set [12] stood at 0. Further, in data set [14], the “Hepatotoxicity (granulomatous hepatitis)” value worked out at 0. Also, in data set [15], the “Hepatotoxicity (benign tumour)” value is listed as 0.
Turning to `CN(C)CCC(c1ccc(Cl)cc1)c1ccccn1.O=C(O)/C=C\C(=O)O` (stereo not given) [CHLORPHENIRAMINE MALEATE], the “Hepatotoxicity (choleostasis)” value in data set [1] turned out to be 1. For the same compound, the “Hepatotoxicity (cirrhosis)” value in data set [2] was 0. For the same compound, the “Hepatotoxicity (chronic liver disease)” value in data set [3] is 0. Moreover, the “Hepatotoxicity (acute)” value in [4] (Liver) is on record as 0%; in data set [5], 2. In addition, in [6], the “Hepatotoxicity (steatosis)” value was found to be 0. The “Hepatotoxicity (cytolytic)” value in [7] was 1. The “Hepatotoxicity (moderate)” value is listed as 0% in data set [8] (Liver) and 0 in data set [10]. Further, the “Hepatotoxicity (time to onset)” value in data set [16] is 1 month. In data set [9], the “Hepatotoxicity (association with vascular disease)” value was found to be 0. Further, the “Hepatotoxicity (severe hepatitis)” value in data set [11] (Liver) amounted to 0. Also, the “Hepatotoxicity (malignant tumour)” value in [12] was found to be 0. For the same compound, the “Hepatotoxicity (granulomatous hepatitis)” value in [14] is recorded as 0. The “Hepatotoxicity (benign tumour)” value in data set [15] stood at 0.
On to `Nc1ccc(C(=O)[O-])cc1.[K+]` [AMINOBENZOATE POTASSIUM], for which the “Hepatotoxicity (choleostasis)” value in data set [1] amounted to 0. Besides, in data set [2], the “Hepatotoxicity (cirrhosis)” value is on record as 0. Also, the “Hepatotoxicity (chronic liver disease)” value in data set [3] amounted to 0. For the same compound, the “Hepatotoxicity (acute)” value in data set [4] is 0%; in data set [5], 1. The “Hepatotoxicity (steatosis)” value in data set [6] turned out to be 0. Further, the “Hepatotoxicity (cytolytic)” value in data set [7] worked out at 1. In addition, the results for the “Hepatotoxicity (moderate)” value in data set [8] and in data set [10] were 38% and 1, respectively. In data set [16], the “Hepatotoxicity (time to onset)” value came to 2 months. In addition, the “Hepatotoxicity (association with vascular disease)” value in data set [9] stood at 0. Also, the “Hepatotoxicity (severe hepatitis)” value in [11] was found to be 0. The “Hepatotoxicity (malignant tumour)” value in [12] came to 0. Also, the “Hepatotoxicity (granulomatous hepatitis)” value in data set [14] is 0. Further, the “Hepatotoxicity (benign tumour)” value in data set [15] is 0.
